Consider five compounds from patent publication US8067424B2, “Selective inhibitors for cyclin-dependent kinases” (Emory University, priority 2007, dated 2011).

Holding throughout (format): biochemical
For one assay, the target named is ROCK 2 (Homo sapiens, UniProt O75116). Briefly: Kinase screen: ROCK-II (ROKa) assay. The procedure:
(§1) Generally, the same procedure was used for all assays. Since the total assay volume was 25.5 microliters, 0.5 microliters of inhibitors at 51× assay concentration were added to the plates before any other addition.
(§2) The basic procedure was to add 0.5 microliters inhibitor/control in DMSO to plate. Fifteen microliters of enzyme/substrate/buffer mix were added and incubated for 5 min. Ten microliters MgATP at the relevant concentration were added and incubated for 30 min. The assay was stopped by adding 5 microliters of 3% orthophosphoric acid. The assay was transferred to a p81 filter plate and read in a scintillation counter of 30 sec/well. Note that this assay procedure was not followed for MKK1, which instead involved a two-step assay, and PKC alpha, which required the addition of lipid vesicles.
ROCK-II (ROKa) assay: ROCK-II (ROKa) (5-20 mU diluted in 50 mM Tris pH 7.5, 0.1 mM EGTA, 0.1% b-mercaptoethanol, 1 mg/ml BSA) was assayed against Long S6 substrate peptide ([…]) (SEQ ID NO: 10) in a final volume of 25.5 μl containing 50 mM Tris pH 7.5, 0.1 mM EGTA, 30 μM Long S6 substrate peptide, 10 mM magnesium acetate and 0.02 mM [33P-g-ATP] (50-1000 cpm/pmole) and incubated for 30 min at room temperature. Assays were stopped by addition of 5 μl of 0.5 M (3%) orthophosphoric acid and then harvested onto P81 Unifilter plates with a wash buffer of 50 mM orthophosphoric acid.

A further assay deals with CAMK1 (Homo sapiens, UniProt Q14012). Briefly: Kinase screen: CAMK-1 assay. The protocol:
as §1, §2
CAMK-1 assay: 5-20 mU of CAMK-1 (diluted in 50 mM Tris (pH 7.5), 0.1 mM EGTA, 1 mg/ml BSA, 0.1%, b-Mercaptoethanol) was assayed against substrate peptide ([…]) (SEQ ID NO: 22) in a final volume of 25.5 μl containing 50 mM Tris (pH 7.5), 0.1 mM EGTA, 0.5 mM CaCl2, 0.3 μM calmodulin, 0.1%, b-Mercaptoethanol, 300 μM substrate peptide, 10 mM magnesium acetate and 0.05 mM [33P-g-ATP] (500-1000 cpm/pmole) and incubated for 30 mins at room temperature. Assays were stopped by addition of 5 μl of 0.5M (3%) orthophosphoric acid. Assays were harvested onto P81 Unifilter plates using a wash buffer of 50 mM orthophosphoric acid.

Another assay concerns the target P38β MAPK (Homo sapiens, UniProt Q15759). Put plainly: Kinase screen: SAPK 2b/p38β2 assay. The procedure:
as §1, §2
SAPK 2b/p38β2 assay: SAPK 2b/p38β2 (5-20 mU diluted in 50 mM Tris pH 7.5, 0.1 mM EGTA, 0.1 mM Na3VO4, 0.1% b-mercaptoethanol, 1 mg/ml BSA) was assayed against MBP in a final volume of 25.5 μl containing 25 mM Tris pH 7.5, 0.1 mM EGTA, 0.33 mg/ml MBP, 10 mM magnesium acetate and 0.02 mM [33P-g-ATP] (50-1000 cpm/pmole) and incubated for 30 min at room temperature. Assays were stopped by addition of 5 μl of 0.5 M (3%) orthophosphoric acid and then harvested onto P81 Unifilter plates with a wash buffer of 50 mM orthophosphoric acid.

A further assay deals with T1, PRAK (Homo sapiens, UniProt Q8IW41).
T1 sequence (Q8IW41 1-473): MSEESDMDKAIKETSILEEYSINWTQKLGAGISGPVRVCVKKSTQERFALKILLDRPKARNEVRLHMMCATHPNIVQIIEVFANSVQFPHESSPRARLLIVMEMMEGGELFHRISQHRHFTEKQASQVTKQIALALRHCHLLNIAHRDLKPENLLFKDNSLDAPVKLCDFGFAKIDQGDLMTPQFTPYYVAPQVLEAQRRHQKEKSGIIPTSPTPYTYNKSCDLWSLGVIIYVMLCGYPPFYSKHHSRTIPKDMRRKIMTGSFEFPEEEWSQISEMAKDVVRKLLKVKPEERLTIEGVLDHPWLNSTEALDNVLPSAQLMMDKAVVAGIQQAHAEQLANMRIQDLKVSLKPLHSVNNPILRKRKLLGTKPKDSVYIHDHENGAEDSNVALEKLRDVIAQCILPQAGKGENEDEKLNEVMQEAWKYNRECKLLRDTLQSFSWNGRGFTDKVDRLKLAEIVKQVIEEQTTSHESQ
Briefly: Kinase screen: PRAK assay. The protocol: as §1, §2
(50-1000 cpm/pmole) and incubated for 30 min at room temperature. Assays were stopped by addition of 5 μl of 0.5 M (3%) orthophosphoric acid and then harvested onto P81 Unifilter plates with a wash buffer of 50 mM orthophosphoric acid.

Where [1] appears, read: 10 micromolar compound, read-out: mean activity remaining (as a percentage of the original activity), ROCK 2.
The mark [2] stands for this setting: 10 micromolar compound, read-out: mean activity remaining (as a percentage of the original activity), CAMK 1.
The mark [3] stands for this setting: 10 micromolar compound, read-out: mean activity remaining (as a percentage of the original activity), p38b MAPK.
Setting [4] is: 10 micromolar compound, read-out: mean activity remaining (as a percentage of the original activity), PRAK.

Where two headings read alike, the source gives them in different places.

P38β MAPK, sequence (Q15759 whole entry): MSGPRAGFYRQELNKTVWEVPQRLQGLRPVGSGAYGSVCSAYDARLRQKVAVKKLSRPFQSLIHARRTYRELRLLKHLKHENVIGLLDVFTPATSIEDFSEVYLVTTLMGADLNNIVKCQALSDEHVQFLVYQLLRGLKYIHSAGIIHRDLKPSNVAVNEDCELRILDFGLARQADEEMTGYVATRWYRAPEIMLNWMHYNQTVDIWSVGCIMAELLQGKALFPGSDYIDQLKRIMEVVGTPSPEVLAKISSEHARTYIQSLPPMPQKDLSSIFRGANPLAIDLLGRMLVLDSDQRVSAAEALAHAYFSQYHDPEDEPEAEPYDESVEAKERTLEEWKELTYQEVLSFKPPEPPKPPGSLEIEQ
ROCK 2, sequence (O75116 whole entry, species assumed): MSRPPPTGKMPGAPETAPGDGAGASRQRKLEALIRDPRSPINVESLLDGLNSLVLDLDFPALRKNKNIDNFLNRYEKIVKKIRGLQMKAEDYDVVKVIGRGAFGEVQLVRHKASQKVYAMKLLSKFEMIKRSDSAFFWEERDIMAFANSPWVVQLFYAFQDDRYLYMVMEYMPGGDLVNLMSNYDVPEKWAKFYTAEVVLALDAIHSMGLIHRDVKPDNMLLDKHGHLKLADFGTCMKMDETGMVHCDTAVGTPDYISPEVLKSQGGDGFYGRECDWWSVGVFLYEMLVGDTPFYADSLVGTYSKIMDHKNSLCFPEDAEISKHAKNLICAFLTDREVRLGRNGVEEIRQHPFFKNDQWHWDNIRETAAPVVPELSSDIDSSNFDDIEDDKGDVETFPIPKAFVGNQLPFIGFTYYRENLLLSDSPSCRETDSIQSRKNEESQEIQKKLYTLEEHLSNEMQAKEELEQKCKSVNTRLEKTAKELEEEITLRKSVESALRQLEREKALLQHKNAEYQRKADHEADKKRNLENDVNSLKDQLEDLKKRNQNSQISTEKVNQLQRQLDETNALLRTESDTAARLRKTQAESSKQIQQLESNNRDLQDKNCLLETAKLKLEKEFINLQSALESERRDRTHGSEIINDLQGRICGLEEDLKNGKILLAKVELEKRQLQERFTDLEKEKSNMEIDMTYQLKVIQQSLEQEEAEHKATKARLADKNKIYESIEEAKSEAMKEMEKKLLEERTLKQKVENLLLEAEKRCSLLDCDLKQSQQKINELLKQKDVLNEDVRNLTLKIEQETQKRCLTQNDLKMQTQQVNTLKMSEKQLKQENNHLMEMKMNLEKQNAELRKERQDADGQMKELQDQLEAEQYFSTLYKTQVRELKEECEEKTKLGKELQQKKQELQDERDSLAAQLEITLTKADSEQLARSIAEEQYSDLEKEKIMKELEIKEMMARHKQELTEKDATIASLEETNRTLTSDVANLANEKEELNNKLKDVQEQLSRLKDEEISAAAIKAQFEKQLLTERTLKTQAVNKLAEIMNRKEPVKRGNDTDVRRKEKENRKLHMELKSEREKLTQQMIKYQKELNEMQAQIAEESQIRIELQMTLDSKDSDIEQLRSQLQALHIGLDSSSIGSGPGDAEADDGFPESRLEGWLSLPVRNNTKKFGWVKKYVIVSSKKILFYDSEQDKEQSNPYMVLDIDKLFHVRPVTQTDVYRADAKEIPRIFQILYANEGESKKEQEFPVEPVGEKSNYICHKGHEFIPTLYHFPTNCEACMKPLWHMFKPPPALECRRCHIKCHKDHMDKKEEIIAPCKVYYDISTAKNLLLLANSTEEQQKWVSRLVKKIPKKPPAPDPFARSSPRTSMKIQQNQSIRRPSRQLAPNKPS

A word on the remaining activity: it is the signal under treatment as a percentage of the control signal. Take `CC[C@H](CO)Nc1cc(NCc2ccccc2)n2ncc(C(C)C)c2n1` [ICEC0067]: the remaining activity at 10 µM on ROCK 2 (setting [1]) was found to be 85%; at CAMK1 (setting [2]), 84%; on P38β MAPK (setting [3]), 98%; at PRAK (setting [4]), 94%.
In the case of `C=C[C@H](CO)Nc1cc(NCc2ccccc2)n2ncc(C(C)C)c2n1` [ICEC0065], the remaining activity at 10 µM at ROCK 2 (setting [1]) was 95%; at CAMK1 (setting [2]), 89%; on P38β MAPK (setting [3]), 104%; on PRAK (setting [4]), 86%.
The like results for `CC(C)c1cnn2c(NCc3ccccc3)cc(N[C@@H](CO)[C@H](O)CO)nc12` [ICEC0318, (3S)-3-(7-(Benzylamino)-3-isopropylpyrazolo[1,5-a]pyrimidin-5-ylamino)butane-1,2,4-triol] were, in that order, 102%, 93%, 94% and 97%.
Consider `CC(C)c1cnn2c(NCc3ccccc3F)cc(NCCCCCN)nc12` [ICEC-0232], for which the “mean activity remaining (as a percentage of the original activity), ROCK 2” value on ROCK 2 (10 micromolar compound) came out at 86%. At CAMK1 (10 micromolar compound), the “mean activity remaining (as a percentage of the original activity), CAMK 1” value was 29%. In addition, the “mean activity remaining (as a percentage of the original activity), p38b MAPK” value at P38β MAPK (10 micromolar compound) is 102%. Also, the “mean activity remaining (as a percentage of the original activity), PRAK” value at PRAK (10 micromolar compound) is listed as 97%.
In the case of `CC(C)c1cnn2c(NCc3ccccc3)cc(NCCCCCCCN)nc12` [BS-181], the remaining activity at 10 µM at ROCK 2 (ROCK 2, 10 μM, read-out: Mean Remaining Enzyme Activity (%)) is 76%; at CAMK1 (CAMK1, 10 μM, read-out: Mean Remaining Enzyme Activity (%)), 48%; on P38β MAPK (P38β MAPK, 10 μM, read-out: Mean Remaining Enzyme Activity (%)) it was 115%; at PRAK (PRAK, 10 μM, read-out: Mean Remaining Enzyme Activity (%)) it was 115%.
